Results from ChEMBL document CHEMBL1201862, “PubChem BioAssay data set” (2004).
Active and inactive are the calls of the source.

Experiments:
cells [1] = assay type: functional, cell-based
[2] = target: T1, Nuclear receptor subfamily 0 group B member 1 (Homo sapiens, UniProt P51843); assay type: functional, cell-based;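 note: HEK293T cells transfected with SF-1 and DAX-1 plus StAR promoter luciferase reporter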
T1 sequence (P51843 whole entry): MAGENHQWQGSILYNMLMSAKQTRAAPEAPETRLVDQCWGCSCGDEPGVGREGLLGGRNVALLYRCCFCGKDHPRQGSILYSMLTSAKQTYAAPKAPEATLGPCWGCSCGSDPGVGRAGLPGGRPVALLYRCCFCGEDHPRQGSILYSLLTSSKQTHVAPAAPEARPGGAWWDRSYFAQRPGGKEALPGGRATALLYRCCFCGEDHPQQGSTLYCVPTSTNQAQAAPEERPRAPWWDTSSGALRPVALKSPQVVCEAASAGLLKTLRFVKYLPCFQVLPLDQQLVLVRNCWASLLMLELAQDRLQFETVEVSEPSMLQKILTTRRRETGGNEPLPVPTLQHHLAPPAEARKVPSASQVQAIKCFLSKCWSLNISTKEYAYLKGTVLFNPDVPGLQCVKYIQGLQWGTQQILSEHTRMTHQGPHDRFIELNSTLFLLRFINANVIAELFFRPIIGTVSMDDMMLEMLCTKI

[3] = target: T2, Rac GTPase-activating protein 1 (Homo sapiens, UniProt Q9H0H5); experiment: MgcRacGAP GTPase-activating activity inhibitors, confirmation, biochemical, ADP Hunter fluorescence, primary and confirmatory (AID 624330); assay type: functional
T2 sequence (Q9H0H5 whole entry): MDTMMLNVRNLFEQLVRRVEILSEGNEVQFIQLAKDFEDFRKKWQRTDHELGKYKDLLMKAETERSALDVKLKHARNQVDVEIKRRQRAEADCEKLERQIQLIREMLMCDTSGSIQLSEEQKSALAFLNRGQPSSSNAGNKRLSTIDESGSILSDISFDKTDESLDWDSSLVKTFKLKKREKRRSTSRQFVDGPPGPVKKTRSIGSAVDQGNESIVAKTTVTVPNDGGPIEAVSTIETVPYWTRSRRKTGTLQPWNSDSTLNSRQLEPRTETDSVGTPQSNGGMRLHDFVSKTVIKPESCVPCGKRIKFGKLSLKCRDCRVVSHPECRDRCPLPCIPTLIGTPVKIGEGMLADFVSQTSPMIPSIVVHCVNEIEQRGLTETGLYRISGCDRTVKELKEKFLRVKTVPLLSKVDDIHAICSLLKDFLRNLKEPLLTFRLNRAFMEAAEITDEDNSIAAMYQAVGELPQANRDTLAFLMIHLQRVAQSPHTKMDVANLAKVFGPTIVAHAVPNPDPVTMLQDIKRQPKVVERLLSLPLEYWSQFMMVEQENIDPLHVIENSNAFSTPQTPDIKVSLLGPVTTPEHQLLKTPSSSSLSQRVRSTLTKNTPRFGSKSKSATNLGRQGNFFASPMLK

[4] = HeLa cell cytotoxicity, dose response, cytotoxicity control for MgcRacGAP inhibitor project (AID 624300); assay type: functional
[5] = THP-1 cell cytotoxicity, dose response, cytotoxicity control for Vif-APOBEC3G degradation inhibitor project, THP-1 cells (AID 1117359); assay type: functional; details: Human immunodeficiency virus 1, THP-1
[6] = microbe, parasite or virus in culture; assay type: functional; details: Mycobacterium tuberculosis
Prothrombin = Prothrombin (Homo sapiens, UniProt P00734); experiment: Thrombin 1536 HTS Dose Response Confirmation. [Related pubchem assays: 1046 (Thrombin 1536 HTS; hits were confirmed in this assay)]; assay type: functional
[7] = target: T3, Adenosylmethionine-8-amino-7-oxononanoate aminotransferase (Mycobacterium tuberculosis, UniProt P9WQ81); experiment: Mycobacterium tuberculosis BioA enzyme inhibitor Measured in Biochemical System Using Plate Reader - 2163-02_Inhibitor_Dose_CherryPick_Activity.; assay type: functional, Mycobacterium tuberculosis UT205
T3 sequence (P9WQ81 whole entry): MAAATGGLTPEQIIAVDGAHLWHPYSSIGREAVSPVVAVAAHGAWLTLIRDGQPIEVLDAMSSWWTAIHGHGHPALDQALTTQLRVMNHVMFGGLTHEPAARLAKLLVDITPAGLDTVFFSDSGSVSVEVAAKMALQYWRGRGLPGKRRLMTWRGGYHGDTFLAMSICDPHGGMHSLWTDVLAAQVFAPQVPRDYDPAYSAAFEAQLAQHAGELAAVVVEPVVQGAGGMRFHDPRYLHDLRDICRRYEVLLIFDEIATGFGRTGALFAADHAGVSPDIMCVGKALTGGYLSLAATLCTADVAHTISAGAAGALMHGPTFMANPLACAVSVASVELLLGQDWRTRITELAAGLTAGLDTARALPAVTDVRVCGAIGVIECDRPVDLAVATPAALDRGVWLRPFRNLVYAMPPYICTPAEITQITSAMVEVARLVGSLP

[8] = LGR2 antagonists, dose response, cell-based, HEK293, CRE-luciferase reporter, cherry pick, set 2 (AID 743343); assay type: functional;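 note: transfected cells were stimulated with diluted bursicon conditioned medium after compound addition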
[9] = inhibitors of PGC1a acetylation in cells, dose response, cell-based, cherry-picked samples (AID 720514); assay type: functional;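 note: potency may reflect raised or lowered acetylation signal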
Paired box protein Pax-8 = Paired box protein Pax-8 (Homo sapiens, UniProt Q06710); experiment: inhibitors of PAX8-driven TPO luciferase reporter, dose response, RMG-I cells, cherry-pick (AID 687027); assay type: functional, cell-based;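 note: luciferase reporter driven by Pax8 target thyroperoxidase promoter measured by SteadyGlo luminescence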
Sequence of Paired box protein Pax-8 (Q06710 whole entry): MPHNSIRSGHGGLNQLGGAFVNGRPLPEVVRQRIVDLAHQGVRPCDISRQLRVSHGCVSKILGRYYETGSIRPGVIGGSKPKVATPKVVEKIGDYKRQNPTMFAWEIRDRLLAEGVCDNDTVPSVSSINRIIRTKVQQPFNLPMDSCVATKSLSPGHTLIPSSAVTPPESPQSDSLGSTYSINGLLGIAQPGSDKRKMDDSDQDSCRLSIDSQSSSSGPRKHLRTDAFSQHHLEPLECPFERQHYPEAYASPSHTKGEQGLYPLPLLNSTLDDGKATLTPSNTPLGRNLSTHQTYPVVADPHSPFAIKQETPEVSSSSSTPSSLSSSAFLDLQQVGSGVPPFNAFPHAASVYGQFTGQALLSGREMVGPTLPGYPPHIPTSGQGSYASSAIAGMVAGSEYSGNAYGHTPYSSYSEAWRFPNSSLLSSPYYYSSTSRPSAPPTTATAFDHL

[10] = IGROV1 ovarian cancer cell cytotoxicity, dose response, PAX8 inhibitor project, plate reader, dry powder samples (AID 743043); assay type: functional, cell-based; details: IGROV-1
[11] = cytotoxicity in OVCAR8 ovarian cancer cells, dose response, PAX8 project, cell-based, plate reader, dry powder samples (AID 743197); assay type: functional; details: OVCAR-8
[12] = P. falciparum Dd2 growth inhibitors, dose response, SYBR Green, dry powder samples (AID 1159566); assay type: functional, cell-based;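 note: potency for growth inhibition with lower SYBR green DNA signal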
[13] = P. falciparum ATP4 D1247Y mutant growth inhibitors, dose response, NITD609-resistant line, SYBR Green, dry powder (AID 1159571); assay type: functional, cell-based;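 note: parasites synchronized at ring stage by sorbitol before testing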
[14] = P. falciparum 3D7-ScDHODH growth inhibitors, dose response, SYBR Green, dry powder samples (AID 1159570); assay type: functional, cell-based;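 note: parasite growth measured after 72 hours of compound exposure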
[15] = target: T4, Trace amine-associated receptor 1 (Homo sapiens, UniProt Q96RJ0); experiment: Counterscreen for agonists of the human trace amine associated receptor 1 (hTAAR1): Fluorescence-based cell-based high throughput dose response assay to identify hTAAR1 agonist that also desensitize TAAR1 receptor response.; assay type: functional
T4 sequence (Q96RJ0 whole entry): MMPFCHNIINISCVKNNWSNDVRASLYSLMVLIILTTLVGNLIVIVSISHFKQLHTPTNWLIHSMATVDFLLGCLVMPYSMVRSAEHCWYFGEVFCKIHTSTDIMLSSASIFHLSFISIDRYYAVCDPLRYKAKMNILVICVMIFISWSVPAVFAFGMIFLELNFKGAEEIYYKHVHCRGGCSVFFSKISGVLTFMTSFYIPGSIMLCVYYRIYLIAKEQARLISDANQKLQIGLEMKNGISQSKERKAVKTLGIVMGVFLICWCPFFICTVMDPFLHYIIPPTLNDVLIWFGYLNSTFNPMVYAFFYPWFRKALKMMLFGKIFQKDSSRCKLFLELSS

cells [16] = assay type: functional, cell-based; remark: listed apart in the source
cells [17] = assay type: functional, cell-based; remark: listed apart in the source
[18] = target: T4, Trace amine-associated receptor 1; experiment: Fluorescence-based cell-based high throughput dose response assay to identify agonists of the human trace amine associated receptor 1 (TAAR1).; assay type: functional

In the case of CC(=O)c1cccc(-c2ccnc3c2CC(C(=O)NCc2ccccc2)O3)c1 (centres undefined), the IC50 (cells [1]) is reported as > 67.4 µM (inactive) and the IC50 [2] is reported as > 67.4 µM (inactive).
In the case of COc1cc(/C=C2\C(=O)N(C)C(=S)N2C)ccc1O, the IC50 [3] is reported as 31.9 µM (active) and the CC50 [4] is reported as 100 µM (active).
For CCCC(C)NC(=O)CSCc1ccc(OC)cc1 (centres undefined), the CC50 [5] was > 40 µM (active).
For Clc1ccc2c(c1)C(c1ccccc1Cl)=NCc1nnc(N3CCN(CCOc4ccccc4)CC3)n1-2, the CC50 [6] was > 40 µM (active).
For COc1ccc(C2c3c(-c4cc(Cl)c(C)cc4O)n[nH]c3C(=O)N2Cc2cccnc2)cc1OC (centres undefined), the IC50 (Prothrombin) was > 50 µM (not active) and the AC50 [7] was 0.102 µM (active).
With CCc1ccc2ncc(S(=O)(=O)c3ccc(C)c(C)c3)c(N3CCCC3)c2c1 the AC50 [8] was 48.2 µM (active).
In the case of COc1cc(CNCCN2CCOCC2)ccc1OCc1ccc(Cl)cc1Cl, the AC50 [9] is reported as 17.3 µM (active).
With CCCCOP(=O)(OCCCC)C(Nc1ccc(C(=O)OCC)cc1)c1ccncc1 (centres undefined) the CC50 [6] was > 40 µM (active).
With C[C@H]1CCCCO[C@H](CN(C)C(=O)Nc2cccc3ccccc23)[C@@H](C)CN([C@@H](C)CO)C(=O)c2cc(NS(=O)(=O)c3ccc(Cl)cc3)ccc2O1 the AC50 (Paired box protein Pax-8) was 4.51 µM (active), the AC50 [10] was 55.2 µM (active) and the AC50 [11] was > 70 µM (inactive).
For C[C@H](CO)N1C[C@H](C)[C@@H](CN(C)CC2CCCC2)Oc2ncc(C#CCc3ccccc3)cc2C1=O, the AC50 [12] was 0.59 µM (active), the AC50 [13] was 0.28 µM (active) and the AC50 [14] was 3.18 µM (active).
With CNCC(C)c1ccccc1 (centres undefined) the IC50 [15] was 3.54 µM (active), the IC50 (cells [16]) was > 29.9 µM (inactive) and the EC50 (cells [17]) was > 29.9 µM (inactive). For the same molecule, the EC50 [18] was 0.598 µM (active).
In the case of CN1CCN(C(=O)c2cc(COc3ccccc3)on2)[C@@H](c2ccccc2)C1, the IC50 (cells [1]) is reported as > 67.6 µM (inactive) and the IC50 [2] is reported as > 67.6 µM (inactive).
With O=C(c1ccc(F)cc1)N1CCC(C(=O)N(Cc2ccccc2)c2ccccc2)CC1 the CC50 [5] was > 40 µM (active).
